Patent publication US20240093184A1, “CHEMICALLY REVERSIBLE 2`-OH ACYLATION PROTECTS RNA FROM HYDROLYTIC AND ENZYMATIC DEGRADATION” (The Board of Trustees of the Leland Stanford Junior …, priority 2022, published 2024)
Values belong to the compound of their own block, whether it stands above or below them.

What was measured:
EMX1-sgRNA [1] = assay: In vitro DNA cleavage function of CRISPR sgRNA; assay type: biochemical; settings: Tris for DMG-cloaked sgRNA, DABCO for alkoxy acylimidazole-cloaked sgRNA; neutral pH, 11 hours
[2] = tested on: mRNAs (TBP, PPIE, and PSMB6); settings: HEK293 total RNA cloaked with DMG acylimidazole; Tris alone, neutral pH, 24 h
Protocol: For instance, the ability of a single 2′-acylation to halt reverse transcriptase during primer extension necessitates efficient 2′-deacylation to avoid premature reverse transcription termination. […] We isolated and cloaked total cellular RNA from HEK293 cells with DMG acylimidazole, and recovery efficiency was evaluated for three representative mRNAs by the reverse transcription efficiencies. […] Recent experiments have shown that local 2′-acylation can terminate translation when

eGFP-mRNA [3] = assay: In vitro translation assay of cloaked and uncloaked eGFP-mRNA; assay type: biochemical
Excerpt: introduced into the coding region of mRNAs. Thus, we investigated whether Tris could restore the translation of a model eGFP-mRNA densely cloaked (50%) by DMG acylimidazole. […] To explore the generality of this observation, we applied the methods to an in vitro transcribed CRISPR sgRNA. Acylation of EMX1-sgRNA by other reagents blocked its cleavage function (<10%) in vitro.

eGFP-mRNA [4] = assay: Accelerated RNA aging of cloaked eGFP-mRNA in RNase-free water at 37° C., capillary electrophoresis; assay type: physicochemical; settings: for extension of lifespan of eGFP-mRNA: extensive cloaking (>90% of accessible 2′-hydroxyls); for resistance of cloaked eGFP-mRNA to thermal degradation: equivalently cloaked (˜50% of unpaired accessible 2′-OH)
Protocol: (§1) In this example, the capacity to use this RNA cloaking strategy to stabilize RNA in solution was assessed with accelerated RNA aging experiments by incubating eGFP-mRNA species with or without cloaking with NAIN3 ((2-(azidomethyl)pyridin-3-yl)(1H-imidazol-1-yl)methanone) in RNase-free water at a mildly elevated temperature (37° C.) (FIG. 1). We then evaluated the lifespan of the mRNA by measuring the relative fraction of remaining fully intact RNA over time. […] Acylation-induced stabilization was further tested on a second, longer mRNA. […] No depurination of adenosine and […] was observed during the span of degradation experiments (FIG. 2). See, for example, FIG. 1.
(§2) We screened these acylimidazole reagents for modulation of RNA thermal degradation by performing accelerated RNA aging experiments with eGFP-mRNA aliquots that were equivalently cloaked (˜50% of unpaired accessible 2′-OH). Representative CE data are shown in FIG. 1 for cloaked eGFP-mRNA, which resisted thermal degradation across broad substituent types. […] Noting subtle differences in the stabilization, we hypothesized that the varying protection afforded by the reagents might arise from differential hydrolytic stability of their adducts; this was later confirmed (see below). […] To compensate for this, more extensive cloaking by N,N-dimethylglycine (DMG) acylimidazole (>90% of unpaired accessible 2″-OH) extended the lifespan of eGFP-m RNA by ˜5-fold.

HeLa cells [5] = assay: Translation of cloaked eGFP-mRNA in transfected HeLa cells (flow cytometry, fluorescence imaging); assay type: cell-based, human; settings: intermediately cloaked, over two days
Excerpt: Intact cells maintain high intracellular concentrations of nucleophilic species such as cysteine and glutathione. […] In this example, we employed cloaked mRNAs encoding fluorescent reporter proteins. Indeed, we observed the emergence of strong green fluorescence signals by flow cytometry over a period of two days in HeLa cells transfected with intermediately DMG-cloaked eGFP-mRNA. […] Moreover, the delayed translation of cloaked mRNAs reflects an initial uncloaking step, which when occurring over time may provide slow-release translation kinetics—reducing an early expression peak and extending the duration of translation (see below). Finally, we also observed that translation of eGFP-mRNA with alkoxyl acyl adduct can also be restored in cells, highlighting possible control over mRNA release kinetics by modification of the acyl group.

Fluc-mRNA = assay: Accelerated RNA aging of cloaked Fluc-mRNA in water at 37° C.; assay type: physicochemical; settings: extensive cloaking (>90% of unpaired 2′-hydroxyls), six days in water
Protocol: as §1

18nt model RNA = assay: Nucleophile screen for removal (uncloaking) of 2′-acyl adducts; assay type: physicochemical; settings: for reversibility of acyl adducts by nucleophiles: 37° C., neutral pH
Excerpt: Nucleophiles are known to catalyze ester hydrolysis; examples include the use of imidazole and pyridine as nucleophilic catalysts. To restore biological activity of RNAs after cloaking-based stabilization, we tested uncloaking strategies to promote rapid hydrolysis of 2′-carboxyl esters with weakly basic nucleophiles (FIG. 5). […] In the library design, we avoided the use of strong Bronsted bases to prevent hydrolytic RNA backbone cleavage. Nucleophiles were screened against the 18nt model RNA containing acyl groups of each type at 37° C. and neutral pH, which identified at least 9 sensitive acylation-nucleophile pairs that promoted >50% removal of adducts within 2 hours. […] Other adducts can also be rapidly removed with designated nucleophiles, with half-lives for reversal ranging from 1.1 to 1.8 hours.
For 2′-acyl adduct by DMG, the effects of the biocompatible tris(hydroxymethyl) aminomethane (Tris) buffer alone were substantial, consistent with previous reports that Tris can hydrolyze active esters.

EMX1-sgRNA [6] = assay: Storage of cloaked EMX1-sgRNA in frozen RNase-free water (−80° C.); assay type: physicochemical; settings: 9 months
Protocol: FIG. 4. Integrity of cloaked EMX1-sgRNA (105 nt) upon incubation in frozen RNase-free water after 9 months (−80° C.).
as §2

[7] = Serum stability of cloaked EMX1-sgRNA; assay type: in vitro ADME; settings: 105nt sgRNA
Excerpt: (§3) In this example, we systematically characterized how acylimidazoles affect enzymatic degradation of EMX1-sgRNA in serum, a 105nt single guide RNA (sgRNA) for CRISPR-Cas9 gene editing (FIG. 7). […] Among all reagents, DMG acylimidazole enhanced sgRNA stability the most, by up to 14-fold. […] Although such protection most likely extends to other RNAs, the secondary structures of RNA may influence the magnitude of enhancement in enzymatic stability. […] This is likely due in part to different RNA motifs having distinct “hotspots” for enzymatic degradation, which may not be completely shielded by cloaking. Taken together, 2′-acylation effectively enhances the serum stability of RNA, the magnitude of which may be influenced by the length and structure of the underlying RNA.

SW480 = assay: Translation of cloaked eGFP-mRNA in SW480 cells; assay type: cell-based, human
HeLa cells [8] = assay: Translation of cloaked d2GFP-mRNA in HeLa cells; assay type: cell-based, human
Protocol: We therefore adopted a reporter system employing mRNA encoding a destabilized green fluorescent protein d2GFP, where both mRNA and protein degradation occur with similar half-lives of ˜2-3 hours. We observed that the translation of unprotected d2GFP-mRNA quickly descended after peaking. […] Taken together, RNA cloaking by DMG derivative DMG acylimidazole effectively extended d2GFP-mRNA functional lifespan and translation, providing insights for the potential use of reversible 2′-acylation as a modulator of mRNA translation kinetics.

RNase T1 = assay: Nucleolytic degradation of cloaked eGFP-mRNA by RNase T1; assay type: biochemical
Excerpt: (§4) In this example, we systemically surveyed protective effects of cloaking with representative RNases and biofluids, recapitulating the common enzymatic conditions RNAs encounter during storage, handling, and application (FIG. 7). […] We next evaluated whether cloaking could ameliorate mRNA degradation in fetal bovine serum (FBS), a frequent component of eukaryotic cell culture (FIG. 8). […] This is likely due in part to DMG acylimidazole retaining RNA secondary structures and helicity for maximum resistance to RNases. Acylating reagents also protect eGFP-mRNA against FBS to varying degrees. […] Thus, 2′-acylation provides context-dependent protection of long RNA (e.g., mRNA) against ribonucleolytic enzymes. Reagent DMG acylimidazole effectively shields mRNA against a broad range of RNases.

[9] = Serum stability of cloaked RNA motifs; assay type: in vitro ADME
Excerpt: as §3

RNase A = assay: Nucleolytic degradation of cloaked eGFP-mRNA by RNase A; assay type: biochemical
Excerpt: as §4

HEK293 = assay: Translation of cloaked eGFP-mRNA in HEK293 cells; assay type: cell-based, human

extension of lifespan of eGFP-mRNA (eGFP-mRNA [4]; RNase-free water, 37° C.): -7 fold
extension of lifespan of intact eGFP-mRNA (eGFP-mRNA [4]; intermediate cloaking (˜50% of unpaired 2′-hydroxyls), RNase-free water, 37° C.): -3 fold
reversibility of acyl adducts by nucleophiles (18nt model RNA): can be reversed via Staudinger reaction
Compound: [N-]=[N+]=NCc1ncccc1C(=O)n1ccnc1 [NAIN3, (2-(azidomethyl)pyridin-3-yl)(1H-imidazol-1-yl)methanone, reference compound]
damage to the nucleobases (deamination of adenine and cytosine) (eGFP-mRNA [4]; within the timespan of the aging experiment): No damage to the nucleobases
translation of cloaked eGFP-mRNA in cells (HeLa cells [5]): translation remained strongly inhibited
backbone cleavage of Fluc-mRNA (Fluc-mRNA): almost completely blocked backbone cleavage

stability of in vitro transcribed EMX1-sgRNA on storage (EMX1-sgRNA [6]): enhanced stability
increase in serum stability of EMX1-sgRNA [7]: up to 14 fold
extension of lifespan of eGFP-mRNA (eGFP-mRNA [4]; RNase-free water, 37° C.): ~5 fold
protection of eGFP-mRNA from nucleolytic degradation by RNase T1 (RNase T1): effectively shielded
reversal of 2′-acyl adduct by Tris buffer alone (18nt model RNA): substantial
serum stability of a bulge loop RNA motif ([9]; bulge loop): increases the serum stability
serum stability of an internal loop motif ([9]; internal loop): minimal enhancement
serum stability of a structurally complex pseudoknot ([9]; pseudoknot): increases the serum stability
protection of eGFP-mRNA from nucleolytic degradation by RNase A (RNase A): effectively shielded
Compound: CN(C)CC(=O)n1ccnc1 [DMG acylimidazole, N,N-dimethylglycine (DMG) acylimidazole]
resistance of cloaked eGFP-mRNA to thermal degradation (eGFP-mRNA [4]): slightly reduced enhancement of RNA thermal stability
recovery of eGFP expression (SW480): confirmed generality
enhancement of total protein output of d2GFP-mRNA (HeLa cells [8]; HeLa cells, versus unprotected d2GFP-mRNA): 31%
duration of sustained d2GFP-mRNA translation at its peak level (HeLa cells [8]; intermediate cloaking, HeLa): ~10 h
translation of cloaked eGFP-mRNA in vitro (eGFP-mRNA [3]; eGFP-mRNA densely cloaked (50%)): strongly blocked the translation
recovery of eGFP expression (HEK293): confirmed generality

resistance of cloaked eGFP-mRNA to thermal degradation (eGFP-mRNA [4]): providing the most stability
Compound: CCOCC(=O)n1ccnc1 [ethoxyacetyl compound]

resistance of cloaked eGFP-mRNA to thermal degradation (eGFP-mRNA [4]): attenuated RNA hydrolysis
reversal of 2′-acyl adduct by Tris buffer alone (18nt model RNA): not reversed by Tris
Compound: CC(=O)n1ccnc1 [acetylimidazole]
reversibility of acyl adducts by nucleophiles (18nt model RNA): relatively resistant to reversal by nonbasic nucleophiles

The remaining lines, values behind:

Compound: tris(hydroxymethyl)aminomethane
restoration of DNA cleavage of cloaked sgRNA (EMX1-sgRNA [1]): fully restored DNA cleavage
recovery of reverse transcription of cloaked mRNAs [2]: reinstated the reverse transcription
restoration of eGFP expression (eGFP-mRNA [3]; DMG acylimidazole-cloaked eGFP-mRNA, Tris, pH=7.5 at 37° C.): up to 87%

Compound: C1CN2CCN1CC2 [DABCO, 1,4-diazabicyclo[2.2.2]octane]
restoration of DNA cleavage of cloaked sgRNA (EMX1-sgRNA [1]): fully restored DNA cleavage

Compound: O=C(c1cccnc1)n1ccnc1 [nicotinic acid acylimidazole]
reversibility of acyl adducts by nucleophiles (18nt model RNA): relatively resistant to reversal by nonbasic nucleophiles
